Paper PMC4623779, “1-Octen-3-ol – the attractant that repels” (F1000Research, 2015)
Residue numbers refer to the chain shown, from its start.

Tests used:
Format in all cases: cell-based
[1] = target: T1, CquiOR118b (co-expressed with CquiOrco) (Culex quinquefasciatus, UniProt A0A3G1CJJ7); assay: two-electrode voltage clamp, Xenopus oocytes, concentration-response; conditions: agonist current, 0.01, 0.1 and 1 µM, holding -80 to -70 mV
T1 construct: full-length short version, 391 residues, shorter N-terminus than the VectorBase prediction CPIJ013954; pGEMHE, Xenopus oocytes co-expressing CquiOrco; with Odorant receptor coreceptor
T1 sequence (A0A3G1CJJ7 1-391): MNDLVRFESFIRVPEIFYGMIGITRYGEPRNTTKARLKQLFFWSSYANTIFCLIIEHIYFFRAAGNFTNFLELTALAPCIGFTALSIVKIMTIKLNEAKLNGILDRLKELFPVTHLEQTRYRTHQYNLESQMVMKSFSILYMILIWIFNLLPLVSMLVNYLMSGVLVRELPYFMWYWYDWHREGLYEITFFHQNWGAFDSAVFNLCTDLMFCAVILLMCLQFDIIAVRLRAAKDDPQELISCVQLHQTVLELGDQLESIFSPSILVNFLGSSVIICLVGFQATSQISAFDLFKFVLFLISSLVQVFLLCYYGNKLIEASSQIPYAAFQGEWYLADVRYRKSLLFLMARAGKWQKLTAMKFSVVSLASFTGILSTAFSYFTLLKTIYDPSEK

[2] = target: T2, CquiOR114b-1 (co-expressed with CquiOrco) (Culex quinquefasciatus, UniProt A0A3G1CJK1); assay: as above; conditions: agonist current, 1, 10 and 100 µM, holding -80 to -70 mV
T2 construct: full length, 405 residues (longer C-terminus); pGEMHE, Xenopus oocytes co-expressing CquiOrco; with Odorant receptor coreceptor
T2 sequence (A0A3G1CJK1 1-405): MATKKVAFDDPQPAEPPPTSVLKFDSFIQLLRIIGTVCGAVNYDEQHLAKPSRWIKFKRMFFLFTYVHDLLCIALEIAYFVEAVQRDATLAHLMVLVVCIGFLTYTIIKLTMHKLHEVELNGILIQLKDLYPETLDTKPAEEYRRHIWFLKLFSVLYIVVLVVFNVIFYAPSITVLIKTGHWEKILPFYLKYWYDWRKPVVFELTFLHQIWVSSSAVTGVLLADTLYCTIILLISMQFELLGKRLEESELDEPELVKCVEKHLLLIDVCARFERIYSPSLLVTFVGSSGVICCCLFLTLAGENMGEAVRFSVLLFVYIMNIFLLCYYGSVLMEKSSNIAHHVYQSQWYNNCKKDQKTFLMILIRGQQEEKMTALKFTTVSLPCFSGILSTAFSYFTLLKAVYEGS

[3] = target: T2, CquiOR114b-1 (co-expressed with CquiOrco); assay: two-electrode voltage clamp, Xenopus oocytes, current traces; conditions: agonist current, 1 to 10 µM, enantiomer not stated
[4] = target: T3, CquiOR114b-2 (co-expressed with CquiOrco) (Culex quinquefasciatus, UniProt A0A3G1CJJ8); assay: as above; conditions: agonist current, 1 to 10 µM, enantiomer not stated
T3 construct: full length, 405 residues (longer C-terminus); pGEMHE, Xenopus oocytes co-expressing CquiOrco; with Odorant receptor coreceptor
T3 sequence (A0A3G1CJJ8 1-405): T2 sequence (A0A3G1CJK1 1-405) with L63W, G122E, D129N
Source text: two-electrode voltage clamp, Xenopus oocytes, current traces on CquiOR114b-2 (co-expressed with CquiOrco) | CquiOR114b-2 and CquiOrco (lower trace). Compounds were delivered in the following order | CquiOR114b-2 and CquiOrco (lower trace). Compounds were delivered in the following order: 1-octyn-3-ol

| SMILES | two-electrode voltage clamp, Xenopus oocytes, concentration-response [1] | two-electrode voltage clamp, Xenopus oocytes, concentration-response [2] | two-electrode voltage clamp, Xenopus oocytes, current traces [3] | two-electrode voltage clamp, Xenopus oocytes, current traces [4] |
| --- | --- | --- | --- | --- |
| C#C[C@@H](O)CCCCC [(S)-1-octyn-3-ol] | CquiOR118b showed dramatic enantioselectivity towards ( R)-as compared to ( S)-1-octyn-3-ol | showed preference for ( S)-isomers of 1-octen-3-ol and 1-octyn-3-ol | – | – |
| C=C[C@H](O)CCCCC [(R)-1-octen-3-ol] | robust responses were elicited by ( R)-1-octen-3-ol in a dose-dependent manner | currents elicited by ( R)-1-octen-3-ol were significantly lower than those obtained with its antipode | – | – |
| C=C[C@@H](O)CCCCC [(S)-1-octen-3-ol] | currents generated by its antipode, ( S)-1-octen-3-ol, were relatively very small | significantly lower than those obtained with its antipode, ( S)-1-octen-3-ol | – | – |
| C#C[C@H](O)CCCCC [(R)-1-octyn-3-ol] | CquiOR118b showed dramatic enantioselectivity towards ( R)-as compared to ( S)-1-octyn-3-ol | oocytes were challenged with enantiomers of 1-octen-3-ol, 1-octyn-3-ol, and 3-octanol | – | – |
| CCCCCC(O)CC (centres unmarked) [3-octanol] | – | – | oocytes co-expressing CquiOR114b-1 and CquiOrco (top trace) | CquiOR114b-2 and CquiOrco (lower trace). Compounds were delivered in the following order |
| C#CC(O)CCCCC (centres unmarked) [1-octyn-3-ol] | – | – | oocytes co-expressing CquiOR114b-1 and CquiOrco (top trace) | CquiOR114b-2 and CquiOrco (lower trace). Compounds were delivered in the following order: 1-octyn-3-ol |
| CCCCC[C@H](O)CC [(R)-3-octanol] | the responses to ( R)-3-octanol were relatively high | robust responses to 3-octanol, with responses to the ( R)- and ( S)-stereoisomers being almost indistinguishable | – | – |
| CCCCC[C@@H](O)CC [(S)-3-octanol] | – | robust responses to 3-octanol, with responses to the ( R)- and ( S)-stereoisomers being almost indistinguishable | – | – |
| C=CC(O)CCCCC (centres unmarked) [1-octen-3-ol] | – | – | oocytes co-expressing CquiOR114b-1 and CquiOrco (top trace) | CquiOR114b-2 and CquiOrco (lower trace). Compounds were delivered in the following order |
